The values that follow are results of earlier work, collected in US20260207540A1 (priority 2020, published 2026).

In data set [1] the test system is Rubella virus.
For data set [2] the following is noted: inhalation challenge 0.25 to 10.0 mg/mL.
Data set [3] concerns SRCR (scavenger receptor cysteine-rich) domain. To be noted: proteins with calcium binding sites similar to host protease TMPRSS2.
The conditions of data set [4]: 1 microgram/kg IV, canines.

Consider `O=C(O)CN(CCN(CC(=O)O)CC(=O)O)CC(=O)O` [EDTA, ethylenediamine tetraacetic acid], for which the Rubella virus infection entry in data set [1] (in the "test tube") was “prevented”. Further, the Rubella fusion entry in data set [1] (in vitro, addition of the calcium chelator) is “completely abrogated”. For the same compound, the bronchoconstriction entry in data set [2] is given as “concentration-dependent bronchoconstriction”. The calcium-dependent binding result in data set [3] is recorded as “disrupted”.

For albuterol sulfate, the EDTA-induced bronchoconstriction result in data set [4] is “significantly attenuated”.
